Entries after “also recorded” stand apart in the source; their conditions may differ. Structures can show the parent of a compound that is named as a salt. Where two headings read alike, the source gives them in different places.
How the values were obtained:
[1] = Quantitative solubility determination of voruciclib malonate after the thermocycling experiments (UPLC); format: physicochemical
Experimental: Moreover, after the thermocycling experiments, an aliquot of the mother liquor was taken and analyzed by UPLC to determine the API solubility. After that, the solutions were evaporated under vacuum (5 mbar) and the dry solids were analyzed by HT-XRPD. The solids were then exposed to accelerated aging conditions (2 days at 40° C./75% RH) followed by HT-XRPD re-analysis. Suspensions of amorphous voruciclib malonate salt were prepared in 24 solvents. After the temperature profile, an aliquot of mother liquor was taken, filtered and analyzed by UPLC to determine the API solubility. A small aliquot of mother liquor was taken and filtered using 0.2 μM PTFE syringe filters. The concentration of solute was determined by UPLC analysis. After that, the solutions were evaporated under vacuum (5 mbar) and the dry solids were analyzed by HT-XRPD. The solids were then exposed to accelerated aging conditions (2 days at 40° C./75% RH) followed by HT-XRPD re-analysis.

[2] = dog, in vivo
Experimental: Each salt form was formulated into tablets with identical formulations. 9 dogs were divided into three group of 3 dogs/group. Each group received one of the following different pre-treatments: • 1. No pretreatment (natural gastric pH—could be acidic or alkaline) • 2. Famotidine (causes alkaline gastric pH) • 3. Pentagastrin (causes acidic gastric pH) The study used a crossover design. Each group of dogs first received pretreatment and was dosed with the Voruciclib HCl salt. After a washout period, the same group of dogs received the same pretreatment and was dosed with the Voruciclib malonate salt. The results were then analyzed for variability. […]
Clinical observations were recorded at least once daily, approximately 1 hour post-Voruciclib dose on dosing days. Body weight measurements were recorded for randomization, prior to dose administration (Day 1 and 8), and on the last day of the washout period following Phase 1 (Day 7). […]
Pharmacokinetic Analysis: Pharmacokinetic (PK) analyses were performed on the individual plasma concentration versus time data for Voruciclib using Phoenix WinNonlin non-compartmental analysis. To evaluate drug absorption, the PK parameter C max (maximum plasma concentration) was measured.
For each dog, the actual administered dose of voruciclib free base was calculated on a mg/kg basis, using the dog body weight data. […]

[3] = Physical stability upon exposure to accelerated aging conditions (AAC, 40° C./75% RH), re-analysis by HT-XRPD; format: physicochemical; conditions: for Physical stability upon exposure to AAC: HT-XRPD before and after; for Stable during AAC: salt screen solids
[4] = Dynamic Vapor Sorption (DVS) hygroscopicity; format: physicochemical; conditions: for Water uptake: 25° C./80% RH; for Hygroscopicity classification: European Pharmacopoeia classification, water uptake at 25° C./80% RH; for Solid form recovered after DVS analysis: XRPD after sorption-desorption-sorption cycle
Experimental: (§1) Differences in hygroscopicity (moisture uptake) of the various forms of a solid material provided a measure of their relative stability at increasing relative humidity. Moisture sorption isotherms of small samples were obtained using a DVS-1 system from Surface Measurement Systems (London, UK); this instrument is suitable for use with a few milligrams of sample, with an accuracy of 0.1 μg. The relative humidity was varied during sorption-desorption-sorption (45-95-0-45% RH) at a constant temperature of 25° C. Weight equilibration per step was set at dm/dt <0.0002 for a minimum of 1 hour or maximum of 6 hours. Afterwards the sample was measured by HT-XRPD.
The hygroscopicity was classified according to the European Pharmacopoeia Hygroscopicity classification.
as §1, with “(40-95-0-40%” for “(45-95-0-45%”
as §1, with “use with as little as a few” for “use with a few”
The hygroscopicity of Mao1 was determined by DVS. The powder was exposed to a RH profile consisting of sorption/desorption/sorption cycles (40-95-0-40% RH) performed at 25° C. The water vapor uptake gained during the sorption half-cycle was 0.75%.

CN1CC[C@H](c2c(O)cc(O)c3c(=O)cc(-c4ccc(C(F)(F)F)cc4Cl)oc23)[C@H]1CO (stereo in doubt) [voruciclib malonate, 2-(2-chloro-4-(trifluoromethyl)phenyl)-5,7-dihydroxy-8-((2S,3R)-2-(hydroxymethyl)-1-methylpyrrolidin-3-yl)-4H-chromen-4-one malonate salt]
solubility ([1]; 1,2-dimethoxyethane, organic solvent or mixture, thermodynamic from solid, 1,2-Dimethoxyethane, read-out: Solubility): 2.3 mg/mL | solubility ([1]; 1,4-dioxane, organic solvent or mixture, thermodynamic from solid, 1,4-Dioxane, read-out: Solubility): 0.9 mg/mL | solubility ([1]; 2-propanol, organic solvent or mixture, thermodynamic from solid, 2-Propanol, read-out: Solubility): 5.1 mg/mL | solubility ([1]; 2-propanol/water (90/10), organic solvent or mixture, thermodynamic from solid, 2-Propanol/water (90/10), read-out: Solubility): 130 mg/mL | solubility ([1]; IPA, acetone, AcN, MEK and 1,2-dimethoxyethane, organic solvent or mixture, thermodynamic from solid, IPA, acetone, AcN, MEK and 1,2-dimethoxyethane, read-out: Solubility classification): 1 to 10 mg/mL | solubility ([1]; THF, water and EtOH, water, thermodynamic from solid, THF, water and EtOH, read-out: Solubility classification): 10 to 33 mg/mL | solubility ([1]; acetone, organic solvent or mixture, thermodynamic from solid, Acetone, read-out: Solubility): 5 mg/mL | solubility ([1]; acetone/water (90/10), organic solvent or mixture, thermodynamic from solid, Acetone/water (90/10), read-out: Solubility): 245 mg/mL | solubility ([1]; acetone/water (90/10, v/v) and IPA/water (90/10, v/v), organic solvent or mixture, thermodynamic from solid, acetone/water (90/10, v/v) and IPA/water (90/10, v/v), read-out: Solubility classification): 100 to 1000 mg/mL | solubility ([1]; acetonitrile, organic solvent or mixture, thermodynamic from solid, Acetonitrile, read-out: Solubility): 3 mg/mL | solubility ([1]; anisole, organic solvent or mixture, thermodynamic from solid, Anisole, read-out: Solubility): < 0.04 mg/mL | solubility ([1]; chloroform, organic solvent or mixture, thermodynamic from solid, Chloroform, read-out: Solubility): 0.5 mg/mL | solubility ([1]; cyclohexane, organic solvent or mixture, thermodynamic from solid, Cyclohexane, read-out: Solubility): < 0.07 mg/mL | solubility ([1]; dichloromethane, organic solvent or mixture, thermodynamic from solid, Dichloromethane, read-out: Solubility): 0.3 mg/mL | solubility ([1]; diethyl ether, organic solvent or mixture, thermodynamic from solid, Diethyl ether, read-out: Solubility): < 0.04 mg/mL | solubility ([1]; ethanol, organic solvent or mixture, thermodynamic from solid, Ethanol, read-out: Solubility): 13.6 mg/mL | solubility ([1]; ethyl acetate, organic solvent or mixture, thermodynamic from solid, Ethyl acetate, read-out: Solubility): 0.3 mg/mL | solubility ([1]; ethyl formate, organic solvent or mixture, thermodynamic from solid, Ethyl formate, read-out: Solubility): 0.4 mg/mL | solubility ([1]; isopropyl acetate, organic solvent or mixture, thermodynamic from solid, Isopropyl acetate, read-out: Solubility): 0.1 mg/mL | solubility ([1]; methanol, organic solvent or mixture, thermodynamic from solid, Methanol, read-out: Solubility): 65.7 mg/mL | solubility ([1]; methanol, organic solvent or mixture, thermodynamic from solid, methanol, read-out: Solubility classification): 33 to 100 mg/mL | solubility ([1]; methyl ethyl ketone, organic solvent or mixture, thermodynamic from solid, Methyl ethyl ketone, read-out: Solubility): 2.9 mg/mL | solubility ([1]; n-heptane, organic solvent or mixture, thermodynamic from solid, n-Heptane, read-out: Solubility): < 0.06 mg/mL | solubility ([1]; organic solvent or mixture, thermodynamic from solid, 1,4-dioxane, chloroform, ethyl formate, DCM, ethyl acetate and isopropyl acetate, read-out: Solubility classification): 0.1 to 1 mg/mL | solubility ([1]; organic solvent or mixture, thermodynamic from solid, toluene, anisole, MTBE, diethyl ether, pentane, cyclohexane and n-heptane, read-out: Solubility classification): < 0.1 mg/mL | solubility ([1]; pentane, organic solvent or mixture, thermodynamic from solid, Pentane, read-out: Solubility): < 0.05 mg/mL | solubility ([1]; tert-butyl methyl ether, organic solvent or mixture, thermodynamic from solid, tert-Butyl methyl ether, read-out: Solubility): < 0.04 mg/mL | solubility ([1]; tetrahydrofuran, organic solvent or mixture, thermodynamic from solid, Tetrahydrofuran, read-out: Solubility): 14.2 mg/mL | solubility ([1]; toluene, organic solvent or mixture, thermodynamic from solid, Toluene, read-out: Solubility): < 0.04 mg/mL | solubility ([1]; water, thermodynamic from solid, Water, read-out: Solubility): 13.6 mg/mL | Variability of absorption [2]: lower than the hydrochloride salt

CN1CCC(c2c(O)cc(O)c3c(=O)cc(-c4ccc(C(F)(F)F)cc4Cl)oc23)C1CO.O=P(O)(O)O (stereo not shown) [Pho1]
Physical stability upon exposure to AAC ([3]; 40° C./75% RH, 2 days): the only stable from when exposed to advance aging conditions; also recorded: physically stable under AAC for 2 days; also recorded: physically stable upon exposure to AAC for two days; also recorded: remained stable | Solid phase AAC (XRPD form after accelerated aging) ([3]; precipitated solids of the salt screen, dried under vacuum at 50° C., 40° C./75% RH for 2 days, HT-XRPD): Pho1 | Stable during AAC ([3]; 40° C./75% RH, 2 days): Yes | Water uptake ([4]; DVS): approximately 5.0% | Hygroscopicity classification [4]: moderately hygroscopic | Solid form recovered after DVS analysis [4]: Pho1 was recovered | Stability against variable humidity conditions ([4]; between 0-95% RH): stable against variable humidity conditions

CN1CC[C@@H](c2c(O)cc(O)c3c(=O)cc(-c4ccc(C(F)(F)F)cc4Cl)oc23)[C@@H]1CO.O=C(O)CC(=O)O [Mao1]
Physical stability upon exposure to AAC ([3]; 40° C./75% RH, 2 days): physically stable upon exposure to AAC; also recorded: physically stable upon exposure to stress conditions | Physically stable ([3]; malonate salt forms, exposure to AAC 40° C./75% RH, 2 days): Yes | Solid forms: Ambient-dried solid (AAC) ([3]; malonate salt thermocycling experiments, label = form of the ambient-dried solid before AAC, 40° C./75% RH, 2 days, HT-XRPD): Mao1 | Solid forms: Evap. ML (AAC) ([3]; malonate salt thermocycling experiments, label = form of the solid from the evaporated mother liquor before AAC, 40° C./75% RH, 2 days, HT-XRPD): Mao1 | Solid forms: Vacuum-dried solids (AAC) ([3]; malonate salt thermocycling experiments, label = form of the vacuum-dried solid before AAC, 40° C./75% RH, 2 days, HT-XRPD): Mao1 | Stable during AAC ([3]; 40° C./75% RH, 2 days): Yes | Liquid phase AAC (XRPD form after accelerated aging) ([3]; solids from evaporated mother liquors of the salt screen, 40° C./75% RH for 2 days, HT-XRPD): Mao1 | Water uptake gained during the first sorption half-cycle ([4]; DVS, 25° C., 40 to 95% RH): 0.75% | Water uptake ([4]; DVS): 0.15% | Hygroscopicity classification [4]: non-hygroscopic | Solid form recovered after DVS analysis [4]: No solid form conversion was observed

Reference: patent US12421216B2, “Voruciclib polymorphs and methods of making and using thereof” (MEI PHARMA, INC., priority 2019, dated 2025)
